According to patent US6858638B2, “Substituted indazoles, compositions containing them, method of production and use” (Aventis Pharma S.A., priority 2002, dated 2005):

Columns and labels:
Type in all cases: biochemical
human KDR enzyme = target: T1, human KDR enzyme (Homo sapiens, UniProt P35968); assay: KDR substrate (PLCγ) phosphorylation, scintillation assay; settings: 10 μM; read-out: KDR % inhib at 10 μM
T1 construct: The cytoplasmic domain of the human KDR enzyme; GST; made in house; host or cells: SF21 insect cells (baculovirus)
T1 sequence (P35968 786-1356 limits assumed): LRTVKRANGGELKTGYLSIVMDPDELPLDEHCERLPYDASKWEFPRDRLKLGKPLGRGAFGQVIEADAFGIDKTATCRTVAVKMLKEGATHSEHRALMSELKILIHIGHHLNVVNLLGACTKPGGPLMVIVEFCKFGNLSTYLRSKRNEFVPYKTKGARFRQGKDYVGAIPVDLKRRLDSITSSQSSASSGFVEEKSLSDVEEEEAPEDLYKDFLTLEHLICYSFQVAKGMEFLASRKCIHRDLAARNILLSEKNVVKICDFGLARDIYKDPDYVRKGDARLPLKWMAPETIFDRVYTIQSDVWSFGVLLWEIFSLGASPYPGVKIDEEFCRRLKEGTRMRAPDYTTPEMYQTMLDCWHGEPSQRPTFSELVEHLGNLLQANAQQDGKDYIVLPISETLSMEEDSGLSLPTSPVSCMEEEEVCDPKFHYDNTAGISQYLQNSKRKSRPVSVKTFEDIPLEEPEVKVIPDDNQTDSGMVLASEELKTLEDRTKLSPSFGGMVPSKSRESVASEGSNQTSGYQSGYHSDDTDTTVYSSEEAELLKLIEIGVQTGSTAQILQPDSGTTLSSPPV
In short: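 Values are percent inhibition relative to the compound-free control, read by scintillation counting of 33P incorporation after EDTA stop. Baculovirus/SF21-expressed GST-KDR cytoplasmic domain (100 ng) acted for 1 h at 37 °C in pH 7.2 MOPS kinase buffer. The substrate was GST-PLCγ SH2-SH3 (2 μg), added with γ33P-ATP and 2 μM unlabeled ATP.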

[1] = target: T2, human IGF1R cytoplasmic domain (Homo sapiens, UniProt P08069); assay: IGF1R autophosphorylation inhibition, time resolved fluorescence (HTRF) assay; settings: 10 μM; read-out: IGF1R % inhib at 10 μM
T2 construct: The human IGF1R cytoplasmic domain was cloned; made in house; host or cells: SF21 insect cells (baculovirus)
T2 sequence (P08069 960-1367 limits assumed): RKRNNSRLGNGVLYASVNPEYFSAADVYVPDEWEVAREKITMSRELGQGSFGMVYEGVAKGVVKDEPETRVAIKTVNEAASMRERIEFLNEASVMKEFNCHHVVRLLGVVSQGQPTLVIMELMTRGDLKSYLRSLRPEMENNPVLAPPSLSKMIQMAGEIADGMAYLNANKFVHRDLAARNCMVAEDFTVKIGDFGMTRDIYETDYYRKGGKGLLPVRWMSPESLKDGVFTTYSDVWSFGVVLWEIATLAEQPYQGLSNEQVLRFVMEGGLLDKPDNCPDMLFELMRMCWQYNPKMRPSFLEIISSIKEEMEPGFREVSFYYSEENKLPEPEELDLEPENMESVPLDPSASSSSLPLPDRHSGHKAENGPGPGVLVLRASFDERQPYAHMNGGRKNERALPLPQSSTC
In short: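 GST-tagged human IGF1R cytoplasmic domain from SF21 cells incubated with compound in 50 mM Hepes pH 7.5, 5 mM MnCl2, 50 mM NaCl, […] ATP. Autophosphorylation detected by HTRF (Eu-K anti-phosphotyrosine, XL665 anti-GST) after EDTA/KF stop; percentage inhibition versus no-compound control.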

human FAK = target: T3, human FAK (Homo sapiens, UniProt Q05397); assay: FAK autophosphorylation inhibition, time resolved fluorescence (HTRF) assay; settings: for inhibition at 10 µM: 10 μM (values without asterisk), read-out: FAK % inhib at 10 μM; for inhibition at 30 µM: 30 μM (values marked *), read-out: FAK % inhib at 30* μM
T3 construct: The complete cDNA of human FAK; made in house; host or cells: baculovirus expression system (vector pFastBac HTc)
T3 sequence (Q05397 whole entry): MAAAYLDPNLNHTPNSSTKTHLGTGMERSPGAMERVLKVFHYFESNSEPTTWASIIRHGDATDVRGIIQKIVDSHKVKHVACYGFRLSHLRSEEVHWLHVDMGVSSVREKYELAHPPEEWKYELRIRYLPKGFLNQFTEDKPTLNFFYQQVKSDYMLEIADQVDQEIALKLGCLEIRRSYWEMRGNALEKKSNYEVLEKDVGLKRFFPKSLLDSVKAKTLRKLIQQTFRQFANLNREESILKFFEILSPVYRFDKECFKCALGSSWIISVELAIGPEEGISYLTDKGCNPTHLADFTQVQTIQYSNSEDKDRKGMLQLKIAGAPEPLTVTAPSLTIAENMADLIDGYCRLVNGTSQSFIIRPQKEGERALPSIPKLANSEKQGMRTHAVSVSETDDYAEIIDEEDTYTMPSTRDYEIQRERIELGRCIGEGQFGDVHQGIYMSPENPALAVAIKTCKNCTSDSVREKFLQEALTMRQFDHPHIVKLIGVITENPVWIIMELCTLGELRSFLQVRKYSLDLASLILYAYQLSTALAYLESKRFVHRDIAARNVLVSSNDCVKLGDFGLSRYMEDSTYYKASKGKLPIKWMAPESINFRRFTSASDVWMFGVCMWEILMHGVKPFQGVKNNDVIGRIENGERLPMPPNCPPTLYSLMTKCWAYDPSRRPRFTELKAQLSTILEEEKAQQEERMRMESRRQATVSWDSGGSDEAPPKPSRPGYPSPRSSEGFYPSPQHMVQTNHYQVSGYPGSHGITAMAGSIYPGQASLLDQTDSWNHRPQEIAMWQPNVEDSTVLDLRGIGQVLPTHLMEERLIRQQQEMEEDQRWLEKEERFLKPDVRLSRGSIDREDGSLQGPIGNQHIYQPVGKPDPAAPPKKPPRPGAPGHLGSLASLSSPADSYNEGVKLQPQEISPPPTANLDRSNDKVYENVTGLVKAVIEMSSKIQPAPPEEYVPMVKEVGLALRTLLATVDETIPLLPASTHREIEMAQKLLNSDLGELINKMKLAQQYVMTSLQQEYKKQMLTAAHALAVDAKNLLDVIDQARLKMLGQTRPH
In short: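 Autophosphorylation was detected by europium-cryptate anti-pTyr and XL665 anti-His energy transfer, percent inhibition from the 665/620 ratio relative to no-compound wells. Enzyme: His-FAK full length, 6.6 µg/ml, incubated 1 h at 37 °C, pH 7.2, 15 µM ATP.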

SMILES	inhibition at 10 µM (human KDR enzyme) [%]	inhibition at 10 µM [1] [%]	inhibition at 10 µM (human FAK) [%]	inhibition at 30 µM (human FAK) [%]
Cc1ccccc1S(=O)(=O)Nc1ccc2[nH]nc(-c3ccccc3)c2c1 [Example 132, 2-Methyl-N-(3-phenyl-1H-indazol-5-yl)-benzenesulfonamide]	96	77	51	–
Cc1cc2[nH]nc(-c3ccccc3)c2cc1NS(=O)(=O)c1ccccc1S(C)(=O)=O [Example 92, 2-Methylsulfonyl-N-(6-methyl-3-phenyl-1H-indazol-5-yl)-benzenesulfonamide]	66	62	27	–
CS(=O)(=O)c1ccccc1S(=O)(=O)Nc1ccc2[nH]nc(-c3cccc(C#N)c3)c2c1 [Example 71, N-[3-(3-Cyanophenyl)-1H-indazol-5-yl]-2-methylsulfonylbenzenesulfonamide]	83	90	97	–
CS(=O)(=O)c1ccccc1S(=O)(=O)Nc1ccc2[nH]nc(N)c2c1 [Example 39, N-(3-Amino-1H-indazol-5-yl)-2-methylsulfonylbenzenesulfonamide]	20	72	96	–
O=S(=O)(Nc1ccc2[nH]nc(-c3ccccc3)c2c1)c1ccc(Cl)s1 [Example 135, 5-Chloro-N-(3-phenyl-1H-indazol-5-yl)thiophene-2-sulfonamide]	91	65	50	–
CS(=O)(=O)c1ccc(F)cc1S(=O)(=O)Nc1ccc2[nH]nc(-c3ccccc3)c2c1 [Example 93, 5-Fluoro-2-methylsulfonyl-N-(3-phenyl-1H-indazol-5-yl)-benzenesulfonamide]	83	87	94	–
CS(=O)(=O)c1ccccc1S(=O)(=O)Nc1ccc2[nH]ncc2c1 [Example 13, 2-Methylsulfonyl-N-(1H-indazol-5-yl)benzenesulfonamide]	0	–	–	83

The remaining lines, values ahead:

inhibition at 10 µM (human KDR enzyme) [%]	inhibition at 10 µM [1] [%]	inhibition at 10 µM (human FAK) [%]	inhibition at 30 µM (human FAK) [%]	SMILES
70	–	89	–	CS(=O)(=O)c1ccccc1S(=O)(=O)Nc1ccc2[nH]nc(-c3ccccc3)c2c1 [Example 7, 2-Methylsulfonyl-N-(3-phenyl-1H-indazol-5-yl)benzenesulfonamide]
42	76	96	–	CS(=O)(=O)c1ccccc1S(=O)(=O)Nc1ccc2[nH]nc(-c3ccco3)c2c1 [Example 53, N-(3-Furan-2-yl-1H-indazol-5-yl)-2-methylsulfonylbenzenesulfonamide]
85	–	82	–	O=S(=O)(Nc1ccc2[nH]nc(-c3ccccc3)c2c1)c1cccc(F)c1 [Example 6, 3-Fluoro-N-(3-phenyl-1H-indazol-5-yl)benzenesulfonamide]
7	–	–	70	CS(=O)(=O)c1ccccc1S(=O)(=O)Nc1ccc2[nH]nc(Cl)c2c1 [Example 1, N-(3-Chloro-1H-indazol-5-yl)-2-methylsulfonylbenzenesulfonamide]
20	–	–	66	Cc1n[nH]c2ccc(NS(=O)(=O)c3ccccc3S(C)(=O)=O)cc12 [Example 10, 2-Methylsulfonyl-N-(3-methyl-1H-indazol-5-yl)benzenesulfonamide]
22	–	–	71	O=S(=O)(Nc1ccc2[nH]nc(Cl)c2c1)c1cccc(F)c1 [Example 3, N-(3-Chloro-1H-indazol-5-yl)-3-fluorobenzenesulfonamide]
81	–	–	76	O=S(=O)(Nc1ccc2[nH]nc(-c3ccccc3)c2c1)c1ccc(Cl)c(Cl)c1 [Example 8, 3,4-Dichloro-N-(3-phenyl-1H-indazol-5-yl)benzenesulfonamide]
18	–	–	68	Cc1n[nH]c2ccc(NS(=O)(=O)c3cccc(F)c3)cc12 [Example 9, 3-Fluoro-N-(3-methyl-1H-indazol-5-yl)benzenesulfonamide]
